Data published in ChEMBL document CHEMBL2380212, “Synthesis, single crystal and antitumor activities of benzimidazole-quinazoline hybrids” (Bioorg Med Chem Lett, 2013).

How the values were obtained:
[1] = n-Octanol-phosphate buffer partition coefficient, log P of the compound at pH 7.4 by shake flask method; assay type: physicochemical
MDA-MB-468 = assay: Cytotoxicity against human MDA-MB-468 cells at 10 uM after 48 hrs by SRB assay; assay type: functional; conditions: MDA-MB-468, 48 h, read-out: GI
T47D = assay: Cytotoxicity against human T47D cells at 10 uM after 48 hrs by SRB assay; assay type: functional; conditions: read-out: GI
MDA-MB-231 = assay: Cytotoxicity against human MDA-MB-231 cells at 10 uM after 48 hrs by SRB assay; assay type: functional; conditions: MDA-MB-231, 48 h, read-out: GI
DU-145 = assay: Cytotoxicity against human DU145 cells at 10 uM after 48 hrs by SRB assay; assay type: functional; conditions: DU-145, 48 h, read-out: GI
UO-31 = assay: Cytotoxicity against human UO31 cells at 10 uM after 48 hrs by SRB assay; assay type: functional; conditions: UO-31, 48 h, read-out: GI
PC-3 = assay: Cytotoxicity against human PC3 cells at 10 uM after 48 hrs by SRB assay; assay type: functional; conditions: PC-3, 48 h, read-out: GI
RXF 393 = assay: Cytotoxicity against human RXF393 cells at 10 uM after 48 hrs by SRB assay; assay type: functional; conditions: RXF 393, 48 h, read-out: GI
SN12C = assay: Cytotoxicity against human SN12C cells at 10 uM after 48 hrs by SRB assay; assay type: functional; conditions: read-out: GI
ACHN = assay: Cytotoxicity against human ACHN cells at 10 uM after 48 hrs by SRB assay; assay type: functional; conditions: read-out: GI
786-0 = assay: Cytotoxicity against human 786-0 cells at 10 uM after 48 hrs by SRB assay; assay type: functional; conditions: 786-0, 48 h, read-out: GI
SK-OV-3 = assay: Cytotoxicity against human SKOV3 cells at 10 uM after 48 hrs by SRB assay; assay type: functional; conditions: SK-OV-3, 48 h, read-out: GI
OVCAR-8 = assay: Cytotoxicity against human OVCAR8 cells at 10 uM after 48 hrs by SRB assay; assay type: functional; conditions: OVCAR-8, 48 h, read-out: GI
OVCAR-5 = assay: Cytotoxicity against human OVCAR5 cells at 10 uM after 48 hrs by SRB assay; assay type: functional; conditions: OVCAR-5, 48 h, read-out: GI
OVCAR-4 = assay: Cytotoxicity against human OVCAR4 cells at 10 uM after 48 hrs by SRB assay; assay type: functional; conditions: OVCAR-4, 48 h, read-out: GI
OVCAR-3 = assay: Cytotoxicity against human OVCAR3 cells at 10 uM after 48 hrs by SRB assay; assay type: functional; conditions: OVCAR-3, 48 h, read-out: GI
IGROV-1 = assay: Cytotoxicity against human IGROV1 cells at 10 uM after 48 hrs by SRB assay; assay type: functional; conditions: IGROV-1, 48 h, read-out: GI
UACC-62 = assay: Cytotoxicity against human UACC62 cells at 10 uM after 48 hrs by SRB assay; assay type: functional; conditions: UACC-62, 48 h, read-out: GI
SK-MEL-2 = assay: Cytotoxicity against human SK-MEL-2 cells at 10 uM after 48 hrs by SRB assay; assay type: functional; conditions: SK-MEL-2, 48 h, read-out: GI
M14 = assay: Cytotoxicity against human M14 cells at 10 uM after 48 hrs by SRB assay; assay type: functional; conditions: M14, 48 h, read-out: GI
U-251 = assay: Cytotoxicity against human U251 cells at 10 uM after 48 hrs by SRB assay; assay type: functional; conditions: U-251, 48 h, read-out: GI
LOX IMVI = assay: Cytotoxicity against human LOXIMVI cells at 10 uM after 48 hrs by SRB assay; assay type: functional; conditions: read-out: GI
SNB-19 = assay: Cytotoxicity against human SNB19 cells at 10 uM after 48 hrs by SRB assay; assay type: functional; conditions: SNB-19, 48 h, read-out: GI
SF-539 = assay: Cytotoxicity against human SF539 cells at 10 uM after 48 hrs by SRB assay; assay type: functional; conditions: SF-539, 48 h, read-out: GI
SF-268 = assay: Cytotoxicity against human SF268 cells at 10 uM after 48 hrs by SRB assay; assay type: functional; conditions: SF-268, 48 h, read-out: GI
KM12 = assay: Cytotoxicity against human KM12 cells at 10 uM after 48 hrs by SRB assay; assay type: functional; conditions: KM12, 48 h, read-out: GI
HT-29 = assay: Cytotoxicity against human HT-29 cells at 10 uM after 48 hrs by SRB assay; assay type: functional; conditions: HT-29, 48 h, read-out: GI
HCT-15 = assay: Cytotoxicity against human HCT15 cells at 10 uM after 48 hrs by SRB assay; assay type: functional; conditions: HCT-15, 48 h, read-out: GI
HCT-116 = assay: Cytotoxicity against human HCT116 cells at 10 uM after 48 hrs by SRB assay; assay type: functional; conditions: HCT-116, 48 h, read-out: GI
NCI-H522 = assay: Cytotoxicity against human NCI-H522 cells at 10 uM after 48 hrs by SRB assay; assay type: functional; conditions: NCI-H522, 48 h, read-out: GI
NCI-H460 = assay: Cytotoxicity against human NCI-H460 cells at 10 uM after 48 hrs by SRB assay; assay type: functional; conditions: NCI-H460, 48 h, read-out: GI
NCI-H322M = assay: Cytotoxicity against human NCI-H322M cells at 10 uM after 48 hrs by SRB assay; assay type: functional; conditions: read-out: GI
NCI-H226 = assay: Cytotoxicity against human NCI-H226 cells at 10 uM after 48 hrs by SRB assay; assay type: functional; conditions: NCI-H226, 48 h, read-out: GI
NCI-H23 = assay: Cytotoxicity against human NCI-H23 cells at 10 uM after 48 hrs by SRB assay; assay type: functional; conditions: NCI-H23, 48 h, read-out: GI
HOP-92 = assay: Cytotoxicity against human HOP92 cells at 10 uM after 48 hrs by SRB assay; assay type: functional; conditions: HOP-92, 48 h, read-out: GI
A549 = assay: Cytotoxicity against human A549 cells at 10 uM after 48 hrs by SRB assay; assay type: functional; conditions: A549, 48 h, read-out: GI
SR = assay: Cytotoxicity against human SR cells at 10 uM after 48 hrs by SRB assay; assay type: functional; conditions: read-out: GI
MOLT-4 = assay: Cytotoxicity against human MOLT4 cells at 10 uM after 48 hrs by SRB assay; assay type: functional; conditions: MOLT-4, 48 h, read-out: GI
RPMI-8226 = assay: Cytotoxicity against human RPMI8226 cells at 10 uM after 48 hrs by SRB assay; assay type: functional; conditions: RPMI-8226, 48 h, read-out: GI
K562 = assay: Cytotoxicity against human K562 cells at 10 uM after 48 hrs by SRB assay; assay type: functional; conditions: K562, 48 h, read-out: GI
HL-60(TB) = assay: Cytotoxicity against human HL-60(TB) cells at 10 uM after 48 hrs by SRB assay; assay type: functional; conditions: HL-60, 48 h, read-out: GI

C=CCn1c(C)nc2cc(Nc3nc(N4CCCC4)nc4ccccc34)ccc21
22.6%: inhibition of growth at 10 µM (T47D)
11.1%: inhibition of growth at 10 µM (786-0)
12.2%: inhibition of growth at 10 µM (RPMI-8226)
18.2%: inhibition of growth at 10 µM (PC-3)
11%: inhibition of growth at 10 µM (SR)
15.5%: inhibition of growth at 10 µM (HOP-92)
2.51: logD [1]
14.9%: inhibition of growth at 10 µM (K562)
< 10%: inhibition of growth at 10 µM (MDA-MB-231) | inhibition of growth at 10 µM (DU-145) | inhibition of growth at 10 µM (RXF 393) | inhibition of growth at 10 µM (SN12C) | inhibition of growth at 10 µM (ACHN) | inhibition of growth at 10 µM (SK-OV-3) | inhibition of growth at 10 µM (OVCAR-8) | inhibition of growth at 10 µM (OVCAR-5) | inhibition of growth at 10 µM (OVCAR-4) | inhibition of growth at 10 µM (OVCAR-3) | inhibition of growth at 10 µM (IGROV-1) | inhibition of growth at 10 µM (UACC-62) | inhibition of growth at 10 µM (SK-MEL-2) | inhibition of growth at 10 µM (M14) | inhibition of growth at 10 µM (U-251) | inhibition of growth at 10 µM (LOX IMVI) | inhibition of growth at 10 µM (SNB-19) | inhibition of growth at 10 µM (SF-539) | inhibition of growth at 10 µM (SF-268) | inhibition of growth at 10 µM (KM12) | inhibition of growth at 10 µM (HT-29) | inhibition of growth at 10 µM (HCT-15) | inhibition of growth at 10 µM (HCT-116) | inhibition of growth at 10 µM (NCI-H522) | inhibition of growth at 10 µM (NCI-H460) | inhibition of growth at 10 µM (NCI-H322M) | inhibition of growth at 10 µM (NCI-H23) | inhibition of growth at 10 µM (MOLT-4) | inhibition of growth at 10 µM (HL-60(TB))
10.1%: inhibition of growth at 10 µM (UO-31) | inhibition of growth at 10 µM (A549)
22%: inhibition of growth at 10 µM (NCI-H226)
13.3%: inhibition of growth at 10 µM (MDA-MB-468)
